Reference: PubChem BioAssay (NCI)
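Assay format: 96-well plates, 48-hour exposure. The concentration for 50% growth inhibition is given as GI50. TGI: concentration producing complete growth inhibition.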

Tests used:
Test in all cases: NCI-60 cell line screen, 48 h
COLO 205 colon = test system: COLO 205 colon
MDA-MB-231 breast = test system: MDA-MB-231 breast
SK-MEL-28 melanoma = test system: SK-MEL-28 melanoma
LOX IMVI melanoma = test system: LOX IMVI melanoma
A549 NSCLC = test system: A549 NSCLC
SK-MEL-2 melanoma = test system: SK-MEL-2 melanoma
SK-OV-3 ovarian = test system: SK-OV-3 ovarian
HL-60(TB) leukemia = test system: HL-60(TB) leukemia
HT29 colon = test system: HT29 colon
M14 melanoma = test system: M14 melanoma
NCI-H522 lung = test system: NCI-H522 lung
ACHN renal = test system: ACHN renal
TK-10 renal = test system: TK-10 renal
NCI-H226 lung = test system: NCI-H226 lung
SR leukemia = test system: SR leukemia
BT-549 breast = test system: BT-549 breast
HOP-92 NSCLC = test system: HOP-92 NSCLC
A498 renal = test system: A498 renal
RPMI-8226 leukemia = test system: RPMI-8226 leukemia
OVCAR-5 ovarian = test system: OVCAR-5 ovarian
CAKI-1 renal = test system: CAKI-1 renal
KM12 colon = test system: KM12 colon
HCT-116 colon = test system: HCT-116 colon
CCRF-CEM leukemia = test system: CCRF-CEM leukemia
OVCAR-4 ovarian = test system: OVCAR-4 ovarian
UACC-62 melanoma = test system: UACC-62 melanoma
PC-3 prostate = test system: PC-3 prostate
SK-MEL-5 melanoma = test system: SK-MEL-5 melanoma
NCI/ADR-RES ovarian = test system: NCI/ADR-RES ovarian
HCC-2998 colon = test system: HCC-2998 colon
SNB-75 CNS = test system: SNB-75 CNS
K-562 leukemia = test system: K-562 leukemia
SF-295 CNS = test system: SF-295 CNS
HCT-15 colon = test system: HCT-15 colon
HS 578T breast = test system: HS 578T breast
SW-620 colon = test system: SW-620 colon
SF-268 CNS = test system: SF-268 CNS
DU-145 prostate = test system: DU-145 prostate
NCI-H23 lung = test system: NCI-H23 lung
U251 CNS = test system: U251 CNS
HOP-62 NSCLC = test system: HOP-62 NSCLC
SF-539 CNS = test system: SF-539 CNS
SNB-19 CNS = test system: SNB-19 CNS
EKVX NSCLC = test system: EKVX NSCLC
OVCAR-3 ovarian = test system: OVCAR-3 ovarian
RXF 393 renal = test system: RXF 393 renal
MOLT-4 leukemia = test system: MOLT-4 leukemia
MCF7 breast = test system: MCF7 breast
786-0 renal = test system: 786-0 renal
T-47D breast = test system: T-47D breast
NCI-H460 lung = test system: NCI-H460 lung
UO-31 renal = test system: UO-31 renal
MDA-MB-435 = test system: MDA-MB-435

COc1ccc2c(CCC(c3ccccc3)c3ccccc3)c3[n+](cc2c1OC)CCc1cc2c(cc1-3)OCO2
GI50 (COLO 205 colon): 0.0831 µM
TGI (COLO 205 colon): 0.619 µM
GI50 (MDA-MB-231 breast): 1.1 µM
TGI (MDA-MB-231 breast): 3.48 µM
GI50 (SK-MEL-28 melanoma): 0.462 µM
TGI (SK-MEL-28 melanoma): 2.06 µM
GI50 (LOX IMVI melanoma): 0.255 µM
TGI (LOX IMVI melanoma): 1.36 µM
GI50 (A549 NSCLC): 1.55 µM
TGI (A549 NSCLC): 5.07 µM
GI50 (SK-MEL-2 melanoma): 0.0705 µM
TGI (SK-MEL-2 melanoma): 1.04 µM
GI50 (SK-OV-3 ovarian): 0.593 µM
TGI (SK-OV-3 ovarian): 1.74 µM
GI50 (HL-60(TB) leukemia): 0.0822 µM
TGI (HL-60(TB) leukemia): 0.526 µM
GI50 (HT29 colon): 0.139 µM
TGI (HT29 colon): 1.31 µM
GI50 (M14 melanoma): 0.296 µM
TGI (M14 melanoma): 1.74 µM
GI50 (NCI-H522 lung): 0.122 µM
TGI (NCI-H522 lung): 0.858 µM
GI50 (ACHN renal): 1.29 µM
TGI (ACHN renal): 5.22 µM
GI50 (TK-10 renal): 0.339 µM
TGI (TK-10 renal): 1.58 µM
GI50 (NCI-H226 lung): 1.56 µM
TGI (NCI-H226 lung): 5.33 µM
GI50 (SR leukemia): 0.373 µM
TGI (SR leukemia): 3.24 µM
GI50 (BT-549 breast): 0.268 µM
TGI (BT-549 breast): 1.35 µM
GI50 (HOP-92 NSCLC): 0.15 µM
TGI (HOP-92 NSCLC): 0.596 µM
GI50 (A498 renal): 1.31 µM
TGI (A498 renal): 6.8 µM
GI50 (RPMI-8226 leukemia): 0.0507 µM
TGI (RPMI-8226 leukemia): 1.72 µM
GI50 (OVCAR-5 ovarian): 1.76 µM
TGI (OVCAR-5 ovarian): 5.95 µM
GI50 (CAKI-1 renal): 3.94 µM
TGI (CAKI-1 renal): 16.1 µM
GI50 (KM12 colon): 0.16 µM
TGI (KM12 colon): 1.19 µM
GI50 (HCT-116 colon): 0.202 µM
TGI (HCT-116 colon): 1.27 µM
GI50 (CCRF-CEM leukemia): < 0.0398 µM
TGI (CCRF-CEM leukemia): 2.71 µM
GI50 (OVCAR-4 ovarian): 0.271 µM
TGI (OVCAR-4 ovarian): 1.51 µM
GI50 (UACC-62 melanoma): 0.153 µM
TGI (UACC-62 melanoma): 1.76 µM
GI50 (PC-3 prostate): 0.112 µM
TGI (PC-3 prostate): 0.837 µM
GI50 (SK-MEL-5 melanoma): 0.0383 µM
TGI (SK-MEL-5 melanoma): 0.214 µM
GI50 (NCI/ADR-RES ovarian): 13.1 µM
TGI (NCI/ADR-RES ovarian): 55.7 µM
GI50 (HCC-2998 colon): 0.326 µM
TGI (HCC-2998 colon): 1.93 µM
GI50 (SNB-75 CNS): 0.266 µM
TGI (SNB-75 CNS): 1.84 µM
GI50 (K-562 leukemia): 0.327 µM
TGI (K-562 leukemia): 3.01 µM
GI50 (SF-295 CNS): 0.732 µM
TGI (SF-295 CNS): 3.99 µM
GI50 (HCT-15 colon): 2.28 µM
TGI (HCT-15 colon): 7.43 µM
GI50 (HS 578T breast): 0.799 µM
TGI (HS 578T breast): 3.82 µM
GI50 (SW-620 colon): 0.315 µM
TGI (SW-620 colon): 1.63 µM
GI50 (SF-268 CNS): 0.519 µM
TGI (SF-268 CNS): 1.98 µM
GI50 (DU-145 prostate): 0.348 µM
TGI (DU-145 prostate): 1.8 µM
GI50 (NCI-H23 lung): 0.242 µM
TGI (NCI-H23 lung): 1.94 µM
GI50 (U251 CNS): 0.172 µM
TGI (U251 CNS): 1.38 µM
GI50 (HOP-62 NSCLC): 0.546 µM
TGI (HOP-62 NSCLC): 1.8 µM
GI50 (SF-539 CNS): 0.846 µM
TGI (SF-539 CNS): 3.67 µM
GI50 (SNB-19 CNS): 0.242 µM
TGI (SNB-19 CNS): 1.74 µM
GI50 (EKVX NSCLC): 0.492 µM
TGI (EKVX NSCLC): 7.25 µM
GI50 (OVCAR-3 ovarian): 0.028 µM
TGI (OVCAR-3 ovarian): 1.3 µM
GI50 (RXF 393 renal): 0.686 µM
TGI (RXF 393 renal): 2.2 µM
GI50 (MOLT-4 leukemia): 0.381 µM
TGI (MOLT-4 leukemia): 3.04 µM
GI50 (MCF7 breast): 0.483 µM
TGI (MCF7 breast): 3.22 µM
GI50 (786-0 renal): 1.09 µM
TGI (786-0 renal): 2.5 µM
GI50 (T-47D breast): 0.241 µM
TGI (T-47D breast): 1.76 µM
GI50 (NCI-H460 lung): 0.0123 µM
TGI (NCI-H460 lung): 1.03 µM
GI50 (UO-31 renal): 3.2 µM
TGI (UO-31 renal): 13.3 µM
GI50 (MDA-MB-435): 0.143 µM
TGI (MDA-MB-435): 1.41 µM
